# Reference: patent US7217505B2, “Method for determining whether condition is symptom of metabolic syndrome” (Cortendo AB, priority 1998, dated 2007)
# “And” between values parts separate entries of the source, which are not always exact repeats. Equal values may be shown once.
# Tested on: autoproduction of cortisol
# Experiment: dexamethasone inhibition test: serum cortisol the morning after low oral doses of dexamethasone
# [1] = 'dangerously' belly fat individuals
smiles,measurement,setting,value
C[C@@H]1C[C@H]2[C@@H]3CCC4=CC(=O)C=C[C@]4(C)[C@@]3(F)[C@@H](O)C[C@]2(C)[C@@]1(O)C(=O)CO [dexamethasone],dose from which inhibition could be measured,[1],0.25 mg
same,dose of maximum inhibition,[1],0.5 to 1 mg
same,critical doses with significant differences between belly fat and other individuals,"about 20 individuals, most distinct difference at 0.5 mg",0.125 mg and 0.5 mg
same,dose at which inhibition of the autoproduction of cortisol was already obtained,normal weight individuals and those with general overweight but without belly fatness,0.05 mg
same,dose of maximum inhibition of the autoproduction of cortisol,normal weight individuals and those with general overweight but without belly fatness (for a few also at 0.5 mg),1 mg
